# Data reported in publication PMC7955127, “Preclinical small molecule WEHI-7326 overcomes drug resistance and elicits response in patient-derived xenograft models of human treatment-refractory tumors” (Cell Death & Disease, 2021).
# Key:
# [1] = tested on: PC3; test: Cell growth inhibition assay, PC3; type: cell-based; settings: Homo sapiens, PC-3; PC3, prostate carcinoma; 72 h viability assay, CellTiterGlo; mean of 3 ± SEM; read-out: IC50 (inhibition of cellular proliferation)
# Method: (§1) Cells were plated at a density of between 500 to 5000 cells per well for adherent cell lines depending on doubling time, and 15,000 cells per well for lymphoblastic leukemia cell lines, in a 96-well plate in 200 μl of growth media. Plates were incubated overnight at 37 °C before adding the inhibitors. Inhibitors were serially diluted from the stock solutions in complete medium and added to the cells. Incubation in the presence of inhibitors was continued for 72 days. Cell viability was assessed by the AlamarBlue (Invitrogen) or CellTiterBlue/Glo (Promega) method according to manufacturer’s instructions. The curve fits and IC50 values were generated in PRISM (GraphPad, San Diego, CA).
# [2] = tested on: U87MGΔ2–7; test: Cell growth inhibition assay, U87MGΔ2–7; type: cell-based; settings: Homo sapiens; U87MGΔ2–7, glioblastoma expressing activated EGFR; 72 h viability assay, CellTiterGlo; mean of 3 ± SEM; read-out: IC50 (inhibition of cellular proliferation)
# Method: as §1, with “Incubation in the presence of inhibitors was continued for 72 days.” left out
# [3] = tested on: 134197 HGSOC PDX; test: HGSOC PDX model 134197; type: in vivo, NSG mice; settings: 134197 cisplatin-resistant PDX; 20 mg/kg i.v. biweekly, 6 weeks
# Method: Two to three mm ovarian tumor fragments were subcutaneously engrafted in the left flank of NSG mice and monitored by physical palpation for tumor growth and engraftment. Engrafted tumors were measured twice a week using digital Vernier calipers and maximum tumor diameter + perpendicular tumor length were digitally recorded into the Study Director software (v 3.0/4.0 StudyLog). Tumor volume was calculated automatically (tumor volume (mm^3) = 0.5236 x [larger diameter (mm) x smaller diameter (mm)^2]). Mice were randomized to treatment once their tumor volume reach 180–300 mm^3 and tumor measurements were performed twice a week up to 120 days or when the tumor volume reaches 700 mm^3.
# Time to progressive disease (PD): Defined as the time (in days) from beginning of treatment to an increase in average tumor volume of >20% from the nadir (taken as the smallest average tumor volume recorded since treatment started or 200 mm^3 if nadir was <200 mm^3 as lesions smaller than this are difficult to measure with accuracy). Median time to harvest (TTH): Defined as the time (in days) from the beginning of treatment to day of harvest at 700 mm^3 and the median TTH was calculated and plotted using Kaplan-Meier curves. Based on ref. [27]. […]
# [4] = tested on: COG-N-440x neuroblastoma PDX; test: High-risk neuroblastoma PDX COG-N-440x; type: in vivo, NSG mice; settings: COG-N-440x PDX; 20 mg/kg i.v. twice weekly
# Method: All animal studies were performed in accordance with the guidelines approved by University of New South Wales Animal Care and Ethics Committee (ACEC 17/53B) and in accordance with the requirements of the Australian Code for the Care and Use of Animals for Scientific Purposes. PDX models COG-N-440x and COG-N-496x were obtained from the Childhood Cancer Repository, Texas Tech University Health Sciences Center in Lubbock, TX, USA. 6–8 week old female NSG mice were engrafted by subcutaneous injection with 1 × 10^6 freshly thawed PDX tumor cells into one flank in a mixture of 100 μl RPMI-1640 and 100 μl Matrigel. Mice were monitored for tumor development three times weekly and tumor size measured using digital Vernier calipers. Treatments commenced when tumors reached 50 mm^3, following randomization into treatment arms. […] Mice were treated with either vincristine (0.5 mg/kg, once weekly i.p. in sterile saline for up to 5 weeks), WEHI-7326 (20 mg/kg; twice weekly i.v. in sterile saline for up to 5 weeks) or vehicle (as for WEHI-7326). For the Th-MYCN transgenic mouse model, spontaneous tumor growth in mice homozygous for the MYCN transgene was assessed by abdominal palpation at least twice a week. Treatments commenced once a small palpable tumor (~5 mm) was detected, following randomization to treatment arms. Mice were euthanized upon detection of an abdominal tumor of ~1 cm in diameter. […]
smiles,measurement,setting,value
COc1ccc(CNc2nc(NCc3ccc(CN)cc3)nc(NN3CC(=O)NC3=O)n2)cc1 [WEHI-7326],IC50,[1],48.9 ± 11.1 nM
same,IC50,[2],6.1 ± 1.6 nM
same,Median time to harvest (TTH),[3],92 days
same,Time to progressive disease (PD),[3],35 days
same,Median survival,[4],39 days
